test: recombinant barcode read abundance after kanamycin selection (control-corrected) (log10(CPM+1)); higher = more efficient recombination; sequences stand for … in AGTGCAGAGAAAATCGGCCAGTTTTCTCTGCCTGCAGTCCGCATGCCGT…AGATTTATGCAGCGGACTGCCTTTCTCCCAAAGTGATAAACCGGACAGTATCATGGACCGGTTTTCCCGGTAATCCGTATTTGCAAGGTTGGTTTCACT; site = the 11-nt target
Outline: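 This pooled E. coli screen matched targets with IS621 bridge RNA target-binding loops. Plating was done in duplicate on chloramphenicol/ampicillin LB agar as a control and on chloramphenicol/ampicillin/kanamycin plus 0.1 mM IPTG. Recombination efficiency reflects barcode counts at recombinant junctions as counts per million, averaged and control-corrected. The figures are log10(CPM+1).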
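Further: IS621 recombinase and bridge RNA in Escherichia coli cells.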

Sequence	recombinant barcode read abundance (log10)
TAGCTCCCTTGGGTTCTAACCTGTTGCCC (site TAGCTCCCTCG)	0.115
TGAGAGACTTGGGTTCTAACCTGTTGCGT (site ATGAGTCCTTT)	0.0989
CCAGTGACTTGGGTTCTAACCTGTTGCCT (site CCAGTGACTAG)	1.38
CATCGCACTTGGGTTCTAACCTGTTGCCT (site CATCGCACTAG)	0.0933
TGGAATTCTTGGGTTCTAACCTGTTGCTT (site TGGAATTCTAA)	0.0863
ACTATAACTTGGGTTCTAACCTGTTGCTT (site ACTTTAACTAA)	0.0487
GCTCGTACTTGGGTTCTAACCTGTTGCAT (site TCGCGTACTAT)	0.0401
TCTCGTTCTTGGGTTCTAACCTGTTGCTA (site AGAGTAACTGT)	0.127
GCGTTTGCTTGGGTTCTAACCTGTTGCCT (site GTGTTTGCTAG)	0
TAGTCTGCTTGGGTTCTAACCTGTTGCCT (site TAGGCTGCTAG)	0.0685
GACTTTACTTGGGTTCTAACCTGTTGCCT (site GACTTTACTAG)	0.0133
TCCTCGTCTTGGGTTCTAACCTGTTGCCT (site GCCTGGTCTAG)	0.00881
TCCAACTCTTGGGTTCTAACCTGTTGCAC (site TCCAACTCTGT)	0.903
TTCAAGCCTTGGGTTCTAACCTGTTGCCT (site TTCAAGACTAG)	0.0598
GAGGGCCCTTGGGTTCTAACCTGTTGCAG (site GAGGGCCCTCC)	0.926
GCTCGACCTTGGGTTCTAACCTGTTGCTG (site GCTCGACCTCA)	1.68
ATGTGCTCTTGGGTTCTAACCTGTTGCCT (site ACGTGCTCTAG)	0.253
AACCACTCTTGGGTTCTAACCTGTTGCCT (site CACCACTCTAG)	0.942
GTTACCGCTTGGGTTCTAACCTGTTGCCT (site GTGACCGCTAG)	0.0865
CTAACCGCTTGGGTTCTAACCTGTTGCCT (site CGAACCGCTAG)	0.0568
AGGAGTCCTTGGGTTCTAACCTGTTGCAG (site AGGAGTCCTCT)	2.24
CAATTTCCTTGGGTTCTAACCTGTTGCAT (site GCCAGCTCTCA)	0.0829

Sequence	recombinant barcode read abundance (log10)
GTGGCTTCTTGGGTTCTAACCTGTTGCCT (site GCGGCTTCTAG)	0.248
ACCCAGCCTTGGGTTCTAACCTGTTGCGT (site ACCCAGCCTAC)	3.25
GGGCCTACTTGGGTTCTAACCTGTTGCTG (site GGGCCTACTTA)	0.121
AACTCATCTTGGGTTCTAACCTGTTGCCT (site AACTTATCTAG)	0.0223
CGAACTACTTGGGTTCTAACCTGTTGCCT (site CGAACTACTAC)	0.311
TGACGTTCTTGGGTTCTAACCTGTTGCCT (site TGACCTTCTAG)	0.189
TTGAAGCCTTGGGTTCTAACCTGTTGCCT (site TTGAAGCCTAG)	1.38
AGCAGTCCTTGGGTTCTAACCTGTTGCGT (site AGGAGTCCTAC)	0.188
TCGGATGCTTGGGTTCTAACCTGTTGCTT (site TCGGATGCTAA)	0.901
GAGTCTTCTTGGGTTCTAACCTGTTGCCA (site CTACAGGCTGT)	0.281
CTAGACACTTGGGTTCTAACCTGTTGCCT (site CTGGACACTAG)	0.0451
CTAGACTCTTGGGTTCTAACCTGTTGCAT (site CTAGACTCTAT)	2.88
ATGCAATCTTGGGTTCTAACCTGTTGCCT (site ATGCAACCTAG)	0.197
TTCTCGCCTTGGGTTCTAACCTGTTGCCT (site TTCGCGCCTAG)	0.00706
GAGCTCACTTGGGTTCTAACCTGTTGCCA (site GAGCTCACTTG)	0.514
GTGTAGTCTTGGGTTCTAACCTGTTGCCG (site GTGTAGGCTCT)	0.254
GCACAAGCTTGGGTTCTAACCTGTTGCCT (site GCTCTAGCTAG)	0.091
GTGTGAGCTTGGGTTCTAACCTGTTGCCG (site GTGTGAGCTCG)	1.74
ATTGGTTCTTGGGTTCTAACCTGTTGCCT (site ATTGGCTCTAG)	0.104
CGCCTCACTTGGGTTCTAACCTGTTGCCT (site CGCCTCTCTAG)	0.0333
CTTTCCTCTTGGGTTCTAACCTGTTGCCT (site CGTTCCTCTAG)	0.0618
AAGGTCGCTTGGGTTCTAACCTGTTGCCT (site AAGGGCGCTAG)	0.347

Sequence	recombinant barcode read abundance (log10)
GTAGCCACTTGGGTTCTAACCTGTTGCCT (site GTTGCCACTAG)	1.06
GCAATTGCTTGGGTTCTAACCTGTTGCCT (site GCAATTGCTAG)	0.458
TTGATGACTTGGGTTCTAACCTGTTGCCT (site TTGATGACTAG)	1.25
CTAGACGCTTGGGTTCTAACCTGTTGCCT (site CAAGACGCTAG)	1.41
CGCTGGCCTTGGGTTCTAACCTGTTGCTT (site CGCTGCCCTAA)	0.112
GTGTCACCTTGGGTTCTAACCTGTTGCCT (site GTGTCAACTAG)	0.205
CTTACTGCTTGGGTTCTAACCTGTTGCCT (site CTTACTGCTAG)	0.183
CCGCCCTCTTGGGTTCTAACCTGTTGCCT (site CTGCCCTCTAG)	0.0291
GCGTCGTCTTGGGTTCTAACCTGTTGCCT (site GCATCGTCTAG)	0.134
ACAGAGACTTGGGTTCTAACCTGTTGCTA (site ACAGAGACTTA)	1.35
TAGCATGCTTGGGTTCTAACCTGTTGCAT (site TAGCATGCTTT)	0.065
CACCTGTCTTGGGTTCTAACCTGTTGCCG (site CACCTGTCTCG)	1.94
AGAGAGTCTTGGGTTCTAACCTGTTGCCT (site AGAGAGTCTAG)	2.53
TAACACTCTTGGGTTCTAACCTGTTGCCT (site TAACACTCTAG)	2
TAGCATGCTTGGGTTCTAACCTGTTGCAG (site TAGCATGCTAT)	0.0261
CTTACTGCTTGGGTTCTAACCTGTTGCCT (site CTTACCGCTAG)	0.291
GATGCTACTTGGGTTCTAACCTGTTGCGG (site GATGCTACTCC)	2.14
GTTTGGACTTGGGTTCTAACCTGTTGCTG (site GTTTGGACTCA)	1.06
TTCTAGACTTGGGTTCTAACCTGTTGCCA (site TTCTAGACTTG)	0.353
ACTTAGACTTGGGTTCTAACCTGTTGCCC (site ACTTAGACTTG)	0
GTAGGGTCTTGGGTTCTAACCTGTTGCCT (site TTGGGGTCTAG)	0.324
CTTAGGGCTTGGGTTCTAACCTGTTGCGG (site CTTAGGGCTCC)	3.02

— the supplement of paper PMC11208160
